Test results reported in article PMC12636295 (bioRxiv, 2025).

Biological target: T1, SCP2 (human sterol carrier protein 2) (Homo sapiens, UniProt P22307)
T1 sequence (P22307 425-547): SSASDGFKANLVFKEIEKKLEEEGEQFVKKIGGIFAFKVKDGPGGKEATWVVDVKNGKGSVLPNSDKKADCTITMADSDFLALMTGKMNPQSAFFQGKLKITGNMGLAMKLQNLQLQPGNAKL
Assay: NBD-SA fluorescence displacement titration
Assay type: binding

- Ki: 8.4 ± 0.6 µM
Compound: O=C(O)C(F)(F)C(F)(F)C(F)(F)C(F)(F)C(F)(F)C(F)(F)C(F)(F)C(F)(F)C(F)(F)C(F)(F)C(F)(F)C(F)(F)C(F)(F)C(F)(F)C(F)(F)F [PFHxDA]
